How the values were obtained:
[1] = Binding affinity to Mushroom Tyrosinase assessed as inhibition constant
[2] = molecular target: T1, Mushroom tyrosinase (Agaricus bisporus, UniProt O42713+Q00024+C7FF04+C7FF05); assay: Inhibition of mushroom Tyrosinase; format: protein assay
[3] = molecular target: T1, Mushroom tyrosinase; assay: Inhibition of mushroom Tyrosinase using L-DOPA as substrate assessed as inhibition constant by Michaelis-Menten analysis; format: protein assay
[4] = molecular target: T2, Tyrosinase (Homo sapiens, UniProt P14679); assay: Binding affinity to human Tyrosinase assessed as inhibition constant
T2 sequence (P14679 whole entry): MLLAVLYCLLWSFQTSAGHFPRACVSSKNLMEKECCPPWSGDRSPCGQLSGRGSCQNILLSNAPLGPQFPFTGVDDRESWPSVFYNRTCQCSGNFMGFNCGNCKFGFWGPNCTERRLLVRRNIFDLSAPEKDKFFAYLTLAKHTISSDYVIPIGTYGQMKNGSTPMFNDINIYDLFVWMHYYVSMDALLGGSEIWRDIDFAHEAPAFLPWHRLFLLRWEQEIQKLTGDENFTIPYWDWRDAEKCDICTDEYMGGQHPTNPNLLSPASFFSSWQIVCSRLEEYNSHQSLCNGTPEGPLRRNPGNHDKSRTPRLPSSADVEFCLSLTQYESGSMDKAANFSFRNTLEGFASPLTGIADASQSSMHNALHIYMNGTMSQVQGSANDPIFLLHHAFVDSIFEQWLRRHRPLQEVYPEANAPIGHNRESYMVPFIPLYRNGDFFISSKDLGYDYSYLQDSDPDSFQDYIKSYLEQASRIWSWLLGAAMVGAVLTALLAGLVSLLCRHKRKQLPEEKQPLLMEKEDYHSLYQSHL

[5] = Inhibition of Bacterial Tyrosinase; design: species or system Bacteria
[6] = molecular target: T1, Mushroom tyrosinase; assay: Binding affinity to mushroom Tyrosinase using L-DOPA as substrate assessed as inhibition constant by Michaelis-Menten analysis; format: protein assay
[7] = molecular target: T1, Mushroom tyrosinase; assay: Inhibition of mushroom Tyrosinase by using L-DOPA as substrate by spectrophotometric assay; format: protein assay
[8] = Biniding affinity to bacterial Tyrosinase assessed as inhibition constant; design: species or system Bacteria
[9] = molecular target: T2, Tyrosinase; assay: Binding affinity to human Tyrosinase using L-DOPA as substrate assessed as inhibition constant by Michaelis-Menten analysis
[10] = molecular target: T2, Tyrosinase; assay: Inhibition of human tyrosinase using L-DOPA as substrate by spectrophotometer analysis
[11] = Inhibition of human Tyrosine kinase
[12] = Binding affinity to bacterial Tyrosinase assessed as inhibition constant; design: species or system Bacteria
[13] = test system: Oc1ccc(OC2CCCCO2)cc1; assay: (§1) Binding affinity to mushroom tyrosinase […]; format: protein assay; details: Agaricus bisporus
[14] = test system: Cc1ccc(O)c(O)c1; assay: as §1; format: protein assay; details: Agaricus bisporus
[15] = test system: OC[C@H]1O[C@@H](Oc2ccc(O)cc2)[C@H](O)[C@@H](O)[C@@H]1O; assay: as §1; format: protein assay; details: Agaricus bisporus
[16] = test system: CC(C)NCC(O)c1ccc(O)c(O)c1; assay: as §1; format: protein assay; details: Agaricus bisporus
[17] = test system: COc1ccc(O)cc1; assay: as §1; format: protein assay; details: Agaricus bisporus
[18] = test system: NCCc1ccc(O)cc1; assay: as §1; format: protein assay; details: Agaricus bisporus
[19] = test system: N[C@@H](Cc1ccc(O)cc1)C(=O)O; assay: as §1; format: protein assay; details: Agaricus bisporus
[20] = test system: N[C@@H](Cc1ccc(O)c(O)c1)C(=O)O; assay: as §1; format: protein assay; details: Agaricus bisporus
[21] = test system: Oc1ccccc1O; assay: as §1; format: protein assay; details: Agaricus bisporus
[22] = test system: O=C(O)Cc1ccc(O)cc1; assay: as §1; format: protein assay; details: Agaricus bisporus
[23] = test system: NCCc1ccc(O)c(O)c1; assay: as §1; format: protein assay; details: Agaricus bisporus
[24] = test system: N[C@H](Cc1ccc(O)cc1)C(=O)O; assay: as §1; format: protein assay; details: Agaricus bisporus
[25] = test system: O=c1c(O)c(-c2ccc(O)c(O)c2)oc2cc(O)cc(O)c12; assay: as §1; format: protein assay; details: Agaricus bisporus
[26] = test system: CC(C)(C)c1ccc(O)c(O)c1; assay: as §1; format: protein assay; details: Agaricus bisporus
[27] = test system: Oc1ccccc1; assay: as §1; format: protein assay; details: Agaricus bisporus
[28] = test system: Oc1ccc(OC2CCCCO2)cc1; assay: (§2) Binding affinity to mushroom tyrosinase assessed as catalytic constant using L-DOPA as substrate by Michaelis-Menten analysis; format: protein assay; details: Agaricus bisporus
[29] = test system: OC[C@H]1O[C@@H](Oc2ccc(O)cc2)[C@H](O)[C@@H](O)[C@@H]1O; assay: as §2; format: protein assay; details: Agaricus bisporus
[30] = test system: O=C1/C(=C/c2ccc(O)cc2)Oc2cc(O)ccc21; assay: as §2; format: protein assay; details: Agaricus bisporus
[31] = test system: Oc1ccc(/C=C/c2cc(O)cc(O)c2)cc1; assay: as §2; format: protein assay; details: Agaricus bisporus
[32] = test system: N[C@H](Cc1ccc(O)c(O)c1)C(=O)O; assay: (§3) Binding affinity to mushroom tyrosinase assessed as catalytic constant; format: protein assay; details: Agaricus bisporus
[33] = test system: Cc1ccc(O)c(O)c1; assay: as §3; format: protein assay; details: Agaricus bisporus
[34] = test system: O=C(/C=C/c1ccc(O)c(O)c1)O[C@H](Cc1ccc(O)c(O)c1)C(=O)O; assay: as §3; format: protein assay; details: Agaricus bisporus
[35] = test system: CC(C)NCC(O)c1ccc(O)c(O)c1; assay: as §3; format: protein assay; details: Agaricus bisporus
[36] = test system: O=C(O)Cc1ccc(O)c(O)c1; assay: as §3; format: protein assay; details: Agaricus bisporus
[37] = test system: N[C@@H](Cc1ccc(O)cc1)C(=O)O; assay: as §3; format: protein assay; details: Agaricus bisporus
[38] = test system: N[C@@H](Cc1ccc(O)c(O)c1)C(=O)O; assay: as §3; format: protein assay; details: Agaricus bisporus
[39] = test system: Oc1ccccc1O; assay: as §3; format: protein assay; details: Agaricus bisporus
[40] = test system: NCCc1ccc(O)c(O)c1; assay: as §3; format: protein assay; details: Agaricus bisporus
[41] = test system: O=C(O)/C=C/c1ccc(O)c(O)c1; assay: as §3; format: protein assay; details: Agaricus bisporus
[42] = test system: O=c1c(O)c(-c2ccc(O)c(O)c2)oc2cc(O)cc(O)c12; assay: as §3; format: protein assay; details: Agaricus bisporus
[43] = test system: CC(C)(C)c1ccc(O)c(O)c1; assay: as §3; format: protein assay; details: Agaricus bisporus
[44] = test system: COc1ccc(O)cc1; assay: (§4) Binding affinity to mushroom tyrosinase assessed as catalytic constant by Michaelis-Menten analysis; format: protein assay; details: Agaricus bisporus
[45] = test system: NCCc1ccc(O)cc1; assay: as §4; format: protein assay; details: Agaricus bisporus
[46] = test system: O=C(O)Cc1ccc(O)cc1; assay: as §4; format: protein assay; details: Agaricus bisporus
[47] = test system: N[C@H](Cc1ccc(O)cc1)C(=O)O; assay: as §4; format: protein assay; details: Agaricus bisporus
[48] = test system: Oc1ccccc1; assay: as §4; format: protein assay; details: Agaricus bisporus

Sequence of Mushroom tyrosinase (Agaricus bisporus) (C7FF05 whole entry, looked up): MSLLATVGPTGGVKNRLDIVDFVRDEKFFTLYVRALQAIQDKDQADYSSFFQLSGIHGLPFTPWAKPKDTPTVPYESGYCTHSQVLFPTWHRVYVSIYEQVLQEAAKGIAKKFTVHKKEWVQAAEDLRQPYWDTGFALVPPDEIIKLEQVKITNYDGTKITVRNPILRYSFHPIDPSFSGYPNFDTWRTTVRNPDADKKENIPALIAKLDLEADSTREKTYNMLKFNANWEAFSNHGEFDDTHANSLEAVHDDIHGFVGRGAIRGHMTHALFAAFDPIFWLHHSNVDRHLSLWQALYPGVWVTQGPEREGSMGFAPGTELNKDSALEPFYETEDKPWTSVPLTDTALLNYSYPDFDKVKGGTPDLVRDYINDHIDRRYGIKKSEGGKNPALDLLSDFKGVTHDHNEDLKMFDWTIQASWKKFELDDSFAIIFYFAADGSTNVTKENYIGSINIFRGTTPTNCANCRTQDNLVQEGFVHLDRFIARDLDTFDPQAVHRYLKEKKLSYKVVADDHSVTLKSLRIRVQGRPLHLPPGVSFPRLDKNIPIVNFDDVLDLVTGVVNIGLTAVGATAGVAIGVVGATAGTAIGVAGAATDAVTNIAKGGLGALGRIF
Sequence of Mushroom tyrosinase (Agaricus bisporus) (C7FF04 whole entry, looked up): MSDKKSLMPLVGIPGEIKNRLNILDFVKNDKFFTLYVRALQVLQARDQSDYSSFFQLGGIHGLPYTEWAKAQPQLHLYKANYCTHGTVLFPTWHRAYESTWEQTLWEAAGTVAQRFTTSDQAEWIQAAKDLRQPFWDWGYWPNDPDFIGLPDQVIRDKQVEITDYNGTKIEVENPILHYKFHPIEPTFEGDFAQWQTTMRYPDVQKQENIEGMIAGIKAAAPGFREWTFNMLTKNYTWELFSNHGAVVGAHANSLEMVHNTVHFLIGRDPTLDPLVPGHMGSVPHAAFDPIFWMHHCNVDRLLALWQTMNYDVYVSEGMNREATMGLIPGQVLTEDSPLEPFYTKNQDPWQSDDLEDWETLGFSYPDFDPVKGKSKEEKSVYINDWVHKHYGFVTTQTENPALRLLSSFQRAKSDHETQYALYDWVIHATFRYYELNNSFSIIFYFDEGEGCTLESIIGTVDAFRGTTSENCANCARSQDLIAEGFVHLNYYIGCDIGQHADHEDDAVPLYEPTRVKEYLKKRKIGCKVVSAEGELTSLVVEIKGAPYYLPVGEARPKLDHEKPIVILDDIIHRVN
Sequence of Mushroom tyrosinase (Agaricus bisporus) (Q00024 whole entry, looked up): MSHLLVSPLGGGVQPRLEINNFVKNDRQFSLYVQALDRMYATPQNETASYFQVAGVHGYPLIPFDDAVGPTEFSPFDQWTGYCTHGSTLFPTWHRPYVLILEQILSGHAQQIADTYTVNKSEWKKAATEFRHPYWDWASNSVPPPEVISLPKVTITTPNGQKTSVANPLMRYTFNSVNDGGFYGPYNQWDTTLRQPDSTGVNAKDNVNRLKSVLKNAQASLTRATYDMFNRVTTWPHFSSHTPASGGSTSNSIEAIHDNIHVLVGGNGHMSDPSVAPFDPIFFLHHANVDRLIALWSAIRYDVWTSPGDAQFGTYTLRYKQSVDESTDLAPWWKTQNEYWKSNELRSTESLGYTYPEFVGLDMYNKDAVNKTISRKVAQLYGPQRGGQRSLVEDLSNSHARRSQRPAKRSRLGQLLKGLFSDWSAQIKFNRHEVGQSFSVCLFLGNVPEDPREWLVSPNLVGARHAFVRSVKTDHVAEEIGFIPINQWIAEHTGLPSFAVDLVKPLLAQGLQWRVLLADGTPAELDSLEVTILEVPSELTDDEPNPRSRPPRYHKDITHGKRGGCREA
Sequence of Mushroom tyrosinase (Agaricus bisporus) (O42713 whole entry, looked up): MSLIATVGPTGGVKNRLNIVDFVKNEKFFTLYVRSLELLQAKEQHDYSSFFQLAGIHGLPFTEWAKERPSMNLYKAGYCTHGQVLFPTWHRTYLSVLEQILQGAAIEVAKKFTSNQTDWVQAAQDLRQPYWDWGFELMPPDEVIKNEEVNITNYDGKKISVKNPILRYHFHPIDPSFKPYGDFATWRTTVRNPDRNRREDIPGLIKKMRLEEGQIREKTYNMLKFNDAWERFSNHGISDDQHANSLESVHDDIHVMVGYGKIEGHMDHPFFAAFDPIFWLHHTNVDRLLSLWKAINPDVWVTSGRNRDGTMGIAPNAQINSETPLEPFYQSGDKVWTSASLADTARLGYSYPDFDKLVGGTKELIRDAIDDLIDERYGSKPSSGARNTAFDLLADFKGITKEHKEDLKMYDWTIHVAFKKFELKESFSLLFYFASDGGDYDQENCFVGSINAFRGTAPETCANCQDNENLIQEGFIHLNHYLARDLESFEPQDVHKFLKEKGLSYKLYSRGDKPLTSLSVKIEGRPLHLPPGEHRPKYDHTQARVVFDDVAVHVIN

## NCCn1ccc(=O)c(O)c1
[1]
  Ki: 14 µM

## O=c1cc(CSC2CCCCC2)occ1O
[2]
  IC50: 0.087 µM

## On1ccccc1=S
[3]
  IC50: 6.1 µM

## NC(=S)N/N=C/c1cc(=O)c(O)co1
[4]
  Ki: 260 µM
[2]
  IC50: 10 µM
[5]
  IC50: 1.6 µM

## Cc1c(C)c2c(c(C)c1O)CCC(C)(C(=O)OCc1cc(=O)c(O)co1)O2 (centres undefined)
[2]
  IC50: 5.4 µM

## O=C(/C=C/c1ccc2c(c1)OCO2)OCc1cc(=O)c(O)co1
[2]
  IC50: 1.4 µM

## COc1ccc(C(=O)OCc2cc(=O)c(O)co2)cc1
[2]
  IC50: 2 µM

## Oc1cccnc1O
[6]
  Ki: 22 µM

## O=C(N[C@@H](Cc1ccccc1)C(=O)OCc1cc(=O)c(O)c[nH]1)OCc1ccccc1
[2]
  IC50: 9 µM

## O=C1/C(=C/c2ccc(=O)n(O)c2)Oc2cccc(O)c21
[6]
  Ki: 1.02 µM

## O=C1/C(=C/c2ccc(=O)n(O)c2)Oc2cc(O)cc(O)c21
[6]
  Ki: 1.2 µM

## O=C1/C(=C/c2ccc(=O)n(O)c2)Oc2cc(O)ccc21
[6]
  Ki: 0.35 µM
[3]
  IC50: 1.5 µM

## O=c1cc(CSc2nnc(-c3ccccc3)n2NCc2ccc(O)cc2O)occ1O
[7]
  IC50: 1.4 µM

## CCCCCCCCn1cc(O)c(=O)cc1COC(=O)[C@@H](N)Cc1ccccc1
[2]
  IC50: 4 µM

## CCOC(=O)/C=C/c1cc(=O)c(O)co1
[2]
  IC50: 36 µM

## CCCCCCCCn1cc(O)c(=O)cc1/C=N/OCC
[2]
  IC50: 8 µM

## O=c1ccc(CO)cn1O
[8]
  Ki: 4.1 µM

## N[C@@H](Cc1ccc(=O)n(O)c1)C(=O)O
[8]
  Ki: 39 µM

## O=Cc1ccc(OCc2cc(=O)c(O)co2)cc1F
[2]
  IC50: 5.3 µM

## CCCCCCCCn1cc(O)c(=O)cc1C=O
[2]
  IC50: 7.8 µM

## O=c1cc(CSCCCCSCc2cc(=O)c(O)co2)occ1O
[2]
  IC50: 3 µM

## O=c1oc2ccc(O)cc2cc1O
[3]
  IC50: 10 µM

## CCCCCCn1cc(O)c(=O)cc1/C=C/c1cc(O)cc(O)c1
[2]
  IC50: 16 µM

## O=c1cc(CSc2nc3ccccc3c(=O)n2CCc2ccccn2)occ1O
[7]
  IC50: 0.46 µM

## O=C(CCNC(=O)OCc1cc(=O)c(O)co1)OCc1cc(=O)c(O)co1
[2]
  IC50: 7 µM

## Nc1cc2ccc(O)cc2oc1=O
[3]
  IC50: 53 µM

## CCn1ccc(=O)c(O)c1
[1]
  Ki: 4 µM

## COc1ccccc1/C=C/C=N/Nc1nnc(SCc2cc(=O)c(O)co2)n1N
[7]
  IC50: 7.5 µM

## O=c1cc(CSc2nc3ccccc3s2)occ1O
[7]
  IC50: > 3 µM

## CC(C)[C@@H](NC(=O)[C@@H](N)Cn1ccc(=O)c(O)c1)C(=O)O
[2]
  IC50: 10.3 µM

## NC(=S)N/N=C\c1ccc(=O)n(O)c1
[9]
  Ki: 47 µM
[8]
  Ki: 2 µM
[6]
  Ki: 0.56 µM
[3]
  IC50: 0.56 µM

## CN(C)c1ccc(-c2nnc(SCc3cc(=O)c(O)co3)nc2-c2ccc(N(C)C)cc2)cc1
[7]
  IC50: 0.34 µM

## O=c1cc(CSc2nnc(-c3ccc(F)cc3)o2)occ1O
[7]
  IC50: 5.3 µM

## CC(C)c1ccccc(=O)c1O [ALPHA-THUJAPLICIN]
[6]
  Ki: 9.5 µM
[10]
  IC50: > 1000 µM

## Cc1c(O)c(=O)ccn1C [DEFERIPRONE]
[2]
  IC50: 30 µM

## CC(C)c1ccc(O)c(=O)cc1 [GAMMA-THUJAPLICIN]
[6]
  Ki: 0.07 µM

## CC(C)c1cccc(=O)c(O)c1 [HINOKITIOL]
[6]
  Ki: 0.09 µM

## O=c1cc(CO)occ1O [KOJIC ACID]
[11]
  IC50: 31 µM

## N[C@@H](Cn1ccc(=O)c(O)c1)C(=O)O [L-MIMOSINE]
[1]
  Ki: 8 µM
[12]
  Ki: 54 µM

## O=c1cccccc1O [TROPOLONE]
[6]
  Ki: 8 µM

## Mushroom tyrosinase (Agaricus bisporus) (from UniProt O42713+Q00024+C7FF04+C7FF05)
[13]
  Km: 0.033 µM
[14]
  Km: 100 µM
[15]
  Km: 3000 µM
[16]
  Km: 7100 µM
[17]
  Km: 80 µM
[18]
  Km: 0.51 µM
[19]
  Km: 0.21 µM
[20]
  Km: 800 µM
[21]
  Km: 0.16 µM
[22]
  Km: 1910 µM
[23]
  Km: 720 µM
[24]
  Km: 2.5 µM
[25]
  Km: 0.12 µM
[26]
  Km: 2.8 µM
[27]
  Km: 0.7 µM
[28]
  kcat: 1.95 s⁻¹
[29]
  kcat: 3.8 s⁻¹
[30]
  kcat: 2.3 s⁻¹
[31]
  kcat: 69 s⁻¹
[32]
  kcat: 108 s⁻¹
[33]
  kcat: 842 s⁻¹
[34]
  kcat: 68 s⁻¹
[35]
  kcat: 29 s⁻¹
[36]
  kcat: 632 s⁻¹
[37]
  kcat: 7.9 s⁻¹
[38]
  kcat: 107 s⁻¹
[39]
  kcat: 874 s⁻¹
[40]
  kcat: 475 s⁻¹
[41]
  kcat: 403 s⁻¹
[42]
  kcat: 6.2 s⁻¹
[43]
  kcat: 642 s⁻¹
[44]
  kcat: 184 s⁻¹
[45]
  kcat: 26 s⁻¹
[46]
  kcat: 44 s⁻¹
[47]
  kcat: 8.7 s⁻¹
[48]
  kcat: 13 s⁻¹
